Consider ten compounds from ChEMBL document CHEMBL1145006 (J Med Chem, 2003).

Starred links: 1 amine or outer side, 2 acyl side, 3 side chain; linkers in the order of their positions; H or OH if unused. Positions of bridges follow the written chain, without caps; N, C: chain ends. Non-standard residues stand in square brackets, D forms with d. Residues, ends and D or L forms follow the SMILES beside them. Groups on a side chain read outwards from the residue. *: point of attachment. Ethylenediamine = C(CN[*:2])N[*:1]; Hyp = O=C(O)[C@@H]1C[C@@H](O)CN1; Phg = N[C@H](C(=O)O)c1ccccc1; CO = O=C([*:1])[*:2]; Bn = c1ccc(C*)cc1

In experiment [1] the target is Somatostatin receptor type 5 (Homo sapiens, UniProt P35346). The experiment can be described thus: Binding affinity towards human Somatostatin receptor type 5 (sst5) using Tyr11-[125I]-SRIF as radioligand was determined in COS cell. The experiment is classed as cell-based.
Somatostatin receptor type 5, sequence (P35346 whole entry): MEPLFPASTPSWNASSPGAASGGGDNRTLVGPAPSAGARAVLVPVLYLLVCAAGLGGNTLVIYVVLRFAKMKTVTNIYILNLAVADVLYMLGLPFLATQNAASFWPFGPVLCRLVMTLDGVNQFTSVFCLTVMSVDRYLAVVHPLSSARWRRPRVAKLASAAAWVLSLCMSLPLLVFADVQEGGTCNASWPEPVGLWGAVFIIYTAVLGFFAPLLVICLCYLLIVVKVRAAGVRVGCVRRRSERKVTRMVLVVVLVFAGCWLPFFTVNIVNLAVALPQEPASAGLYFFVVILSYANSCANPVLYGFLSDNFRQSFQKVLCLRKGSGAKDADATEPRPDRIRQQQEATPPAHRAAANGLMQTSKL
In experiment [2] the target is Somatostatin receptor type 4 (Homo sapiens, UniProt P31391). The experiment can be described thus: Binding affinity towards human Somatostatin receptor type 4 (sst4) using Tyr11-[125I]-SRIF as radioligand was determined in CHO cells. Type of experiment: cell-based. Conditions: for Log Ki: cho.
Somatostatin receptor type 4, sequence (P31391 whole entry): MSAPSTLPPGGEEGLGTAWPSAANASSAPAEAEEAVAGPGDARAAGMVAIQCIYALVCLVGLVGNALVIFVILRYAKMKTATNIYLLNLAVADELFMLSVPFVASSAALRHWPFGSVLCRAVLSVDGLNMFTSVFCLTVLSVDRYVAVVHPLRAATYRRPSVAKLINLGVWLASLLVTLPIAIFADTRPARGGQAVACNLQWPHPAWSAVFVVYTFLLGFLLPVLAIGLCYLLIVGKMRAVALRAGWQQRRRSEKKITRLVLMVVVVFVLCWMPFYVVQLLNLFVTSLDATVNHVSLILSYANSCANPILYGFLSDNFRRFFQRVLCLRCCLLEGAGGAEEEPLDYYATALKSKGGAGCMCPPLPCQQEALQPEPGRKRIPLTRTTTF
For experiment [3], the target named is Somatostatin receptor type 1 (Homo sapiens, UniProt P30872). The experiment can be described thus: Binding affinity towards human Somatostatin receptor type 1 (sst1) using Tyr11-[125I]-SRIF as radioligand was determined in CHO cells. The experiment is classed as cell-based.
Somatostatin receptor type 1, sequence (P30872 whole entry): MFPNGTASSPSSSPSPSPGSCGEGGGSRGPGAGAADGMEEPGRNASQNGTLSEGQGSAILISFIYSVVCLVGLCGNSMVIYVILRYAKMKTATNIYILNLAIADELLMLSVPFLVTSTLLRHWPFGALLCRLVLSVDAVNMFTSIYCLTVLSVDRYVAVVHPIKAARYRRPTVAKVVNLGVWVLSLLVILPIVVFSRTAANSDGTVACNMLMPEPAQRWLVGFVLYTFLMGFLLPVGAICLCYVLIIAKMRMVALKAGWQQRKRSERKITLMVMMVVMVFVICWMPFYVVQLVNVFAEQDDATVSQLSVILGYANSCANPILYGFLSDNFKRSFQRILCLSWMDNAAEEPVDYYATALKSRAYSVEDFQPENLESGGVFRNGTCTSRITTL
In experiment [4] the target is Somatostatin receptor type 2 (Homo sapiens, UniProt P30874). The experiment can be described thus: Binding affinity towards human Somatostatin receptor type 2 (sst2) using Tyr11-[125I]-SRIF as radioligand was determined in CHO cells. The experiment is classed as cell-based.
Somatostatin receptor type 2, sequence (P30874 whole entry): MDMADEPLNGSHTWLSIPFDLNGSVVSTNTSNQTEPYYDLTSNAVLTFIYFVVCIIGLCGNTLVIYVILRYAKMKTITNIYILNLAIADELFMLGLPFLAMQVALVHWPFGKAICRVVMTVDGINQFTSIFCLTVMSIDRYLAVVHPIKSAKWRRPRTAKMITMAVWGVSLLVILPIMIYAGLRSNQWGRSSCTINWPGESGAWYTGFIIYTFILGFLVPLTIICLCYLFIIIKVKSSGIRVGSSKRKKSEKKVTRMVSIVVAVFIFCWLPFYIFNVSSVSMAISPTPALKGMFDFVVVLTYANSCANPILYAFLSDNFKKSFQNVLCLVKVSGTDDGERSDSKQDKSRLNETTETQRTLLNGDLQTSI
Experiment [5] has as its target Somatostatin receptor type 3 (Homo sapiens, UniProt P32745). The experiment can be described thus: Binding affinity towards human Somatostatin receptor type 3 (sst3) using Tyr11-[125I]-SRIF as radioligand was determined in CHO cells. Type of experiment: cell-based.
The species entered for a further experiment is Rattus norvegicus. The experiment can be described thus: In vitro inhibition of GHRH induced GH release in primary cultures of rat pituitary cells. The following applies: Pituitary gland cell. The experiment is classed as functional, cell-based.

Somatostatin receptor type 3, sequence (P32745 whole entry): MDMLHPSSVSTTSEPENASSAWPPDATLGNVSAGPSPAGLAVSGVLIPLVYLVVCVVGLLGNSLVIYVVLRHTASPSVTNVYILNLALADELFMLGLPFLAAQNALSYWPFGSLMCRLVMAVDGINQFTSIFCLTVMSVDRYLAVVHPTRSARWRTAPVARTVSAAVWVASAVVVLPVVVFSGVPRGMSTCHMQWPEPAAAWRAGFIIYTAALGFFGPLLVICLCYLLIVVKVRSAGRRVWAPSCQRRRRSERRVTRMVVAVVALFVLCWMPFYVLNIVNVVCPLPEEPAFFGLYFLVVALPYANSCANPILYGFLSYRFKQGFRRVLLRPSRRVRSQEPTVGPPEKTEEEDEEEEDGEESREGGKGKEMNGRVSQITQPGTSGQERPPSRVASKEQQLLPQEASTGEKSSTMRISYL

As for `C[C@H](N)C(=O)NCC(=O)N[C@H]1CSSC[C@@H](C(N)=O)NC(=O)[C@H](CO)NC(=O)[C@H]([C@@H](C)O)NC(=O)[C@H](Cc2ccccc2)NC(=O)[C@H]([C@@H](C)O)NC(=O)[C@H](CCCCN)NC(=O)[C@H](C)NC(=O)[C@H](Cc2ccccc2)NC(=O)[C@H](Cc2ccccc2)NC(=O)[C@H](CC(N)=O)NC(=O)[C@H](CCCCN)NC1=O` (H-AGCKNFFAKTFTSC-NH2; disulfide 3-14), the Ki in experiment [1] was 79.4 nM; in experiment [2], greater than 1000 nM; in experiment [3], 1000 nM; in experiment [4], 1000 nM; in experiment [5], 1000 nM.

On to `C[C@H](N)C(=O)NCC(=O)N[C@H]1CSSC[C@@H](C(N)=O)NC(=O)[C@H](CO)NC(=O)[C@H]([C@@H](C)O)NC(=O)[C@H](Cc2ccccc2)NC(=O)[C@H]([C@@H](C)O)NC(=O)[C@H](C)NC(=O)[C@H](Cc2c[nH]c3ccccc23)NC(=O)[C@H](Cc2ccccc2)NC(=O)[C@H](Cc2ccccc2)NC(=O)[C@H](CC(N)=O)NC(=O)[C@H](CCCCN)NC1=O` (H-AGCKNFFWATFTSC-NH2; disulfide 3-14), for which the Ki in experiment [1] was 100 nM; in experiment [2], greater than 1000 nM; in experiment [3], 1000 nM; in experiment [4], 1000 nM; in experiment [5], 1000 nM.

For the compound `C[C@H](N)C(=O)NCC(=O)N[C@H]1CSSC[C@@H](C(N)=O)NC(=O)[C@H](CO)NC(=O)[C@H]([C@@H](C)O)NC(=O)[C@H](Cc2ccccc2)NC(=O)[C@H](C)NC(=O)[C@H](CCCCN)NC(=O)[C@H](Cc2c[nH]c3ccccc23)NC(=O)[C@H](Cc2ccccc2)NC(=O)[C@H](Cc2ccccc2)NC(=O)[C@H](CC(N)=O)NC(=O)[C@H](CCCCN)NC1=O` (H-AGCKNFFWKAFTSC-NH2; disulfide 3-14), the inhibitory constant (Ki) in experiment [1] is 0.631 nM; in experiment [3], 6.31 nM; in experiment [4] it was 1 nM; in experiment [5] it was 1.58 nM. In experiment [2], the Log Ki was greater than -8.4.

`C[C@H](N)C(=O)NCC(=O)N[C@H]1CSSC[C@@H](C(N)=O)NC(=O)[C@H](CO)NC(=O)[C@H]([C@@H](C)O)NC(=O)[C@H](C)NC(=O)[C@H]([C@@H](C)O)NC(=O)[C@H](CCCCN)NC(=O)[C@H](Cc2c[nH]c3ccccc23)NC(=O)[C@H](Cc2ccccc2)NC(=O)[C@H](Cc2ccccc2)NC(=O)[C@H](CC(N)=O)NC(=O)[C@H](CCCCN)NC1=O` (H-AGCKNFFWKTATSC-NH2; disulfide 3-14): the Ki in experiment [1] is 6.31 nM; in experiment [3], 0.631 nM; in experiment [4], 6.31 nM; in experiment [5], 7.94 nM. Also, the Log Ki in experiment [2] is greater than -9.

For `C[C@H](N)C(=O)NCC(=O)N[C@H]1CSSC[C@@H](C(N)=O)NC(=O)[C@H](CO)NC(=O)[C@H](C)NC(=O)[C@H](Cc2ccccc2)NC(=O)[C@H]([C@@H](C)O)NC(=O)[C@H](CCCCN)NC(=O)[C@H](Cc2c[nH]c3ccccc23)NC(=O)[C@H](Cc2ccccc2)NC(=O)[C@H](Cc2ccccc2)NC(=O)[C@H](CC(N)=O)NC(=O)[C@H](CCCCN)NC1=O` (H-AGCKNFFWKTFASC-NH2; disulfide 3-14), the Ki is 0.398 nM in experiment [1], 0.501 nM in experiment [3], 1.26 nM in experiment [4] and 0.631 nM in experiment [5]. This compound also had a Log Ki in experiment [2] greater than -9.2.

As to `C[C@H](N)C(=O)NCC(=O)N[C@H]1CSSC[C@@H](C(N)=O)NC(=O)[C@H](C)NC(=O)[C@H]([C@@H](C)O)NC(=O)[C@H](Cc2ccccc2)NC(=O)[C@H]([C@@H](C)O)NC(=O)[C@H](CCCCN)NC(=O)[C@H](Cc2c[nH]c3ccccc23)NC(=O)[C@H](Cc2ccccc2)NC(=O)[C@H](Cc2ccccc2)NC(=O)[C@H](CC(N)=O)NC(=O)[C@H](CCCCN)NC1=O` (H-AGCKNFFWKTFTAC-NH2; disulfide 3-14), the inhibition constant Ki in experiment [1] is 0.794 nM; in experiment [3], 0.158 nM; in experiment [4], 0.0794 nM; in experiment [5] it was 0.631 nM. The Log Ki in experiment [2] is greater than -10.

In the case of `NCCCC[C@@H]1NC(=O)[C@@H](Cc2c[nH]c3ccccc23)NC(=O)[C@H](Cc2ccccc2)NC(=O)[C@@H]2C[C@@H](OC(=O)NCCN)CN2C(=O)[C@H](Cc2ccccc2)NC(=O)[C@H](Cc2ccc(OCc3ccccc3)cc2)NC1=O` (cyclo(F[Hyp]([CO-Ethylenediamine])F[dW]KY(Bn))), the Ki in experiment [1] was 0.398 nM; in experiment [2] it was 501 nM; in experiment [3] it was 3.98 nM; in experiment [4] it was 2 nM; in experiment [5], 0.794 nM.

Turning to `C[C@@H](O)[C@@H]1NC(=O)[C@H](CCCCN)NC(=O)[C@@H](Cc2c[nH]c3ccccc23)NC(=O)[C@H](Cc2ccccc2)NC(=O)[C@@H]2C[C@@H](O)CN2C(=O)[C@H](Cc2ccccc2)NC1=O` (cyclo(F[Hyp]F[dW]KT)), the Ki in experiment [1] is greater than 1000 nM; in experiment [2] it was greater than 1000 nM; in experiment [3], greater than 1000 nM; in experiment [4] it was 0.2 nM; in experiment [5] it was 200 nM.

Turning to `NCCCC[C@@H]1NC(=O)[C@@H](Cc2c[nH]c3ccccc23)NC(=O)[C@H](Cc2ccccc2)NC(=O)[C@@H]2C[C@@H](O)CN2C(=O)[C@H](Cc2ccccc2)NC(=O)[C@H](Cc2ccc(OCc3ccccc3)cc2)NC1=O` (cyclo(F[Hyp]F[dW]KY(Bn))), the Ki in experiment [1] is 0.316 nM; in experiment [2] it was 316 nM; in experiment [3], 63.1 nM; in experiment [4], 0.794 nM; in experiment [5], 1.58 nM.

Turning to `NCCCC[C@@H]1NC(=O)[C@@H](Cc2c[nH]c3ccccc23)NC(=O)[C@H](c2ccccc2)NC(=O)[C@@H]2C[C@@H](OC(=O)NCCN)CN2C(=O)[C@H](Cc2ccccc2)NC(=O)[C@H](Cc2ccc(OCc3ccccc3)cc2)NC1=O` [PASIREOTIDE] (cyclo(F[Hyp]([CO-Ethylenediamine])[Phg][dW]KY(Bn))), the Ki in experiment [1] is 0.126 nM; in experiment [3], 6.31 nM; in experiment [4], 1 nM; in experiment [5], 0.794 nM. Further, the Log Ki in experiment [2] is greater than -7. The same compound had a half-inhibitory concentration (IC50) in the experiment filed under Rattus norvegicus of 0.4 nM.
